Test results from patent publication US6410009B1, “Pharmaceutical composition for treating hepatitis B virus (HBV) infection” (Hadasit Medical Research Services & Development Co., Ltd., priority 1997, dated 2002).

Key:
HBV [1] = test: HBV-DNA by PCR in sera of chimeric mice after intrasplenic injection of HepG2-derived cell lines incubated with HBV with or without hIL6; type: in vivo, SCID>BNX chimeric mice; conditions: HepG2-hIL6R cells incubated with HBV in the presence of hIL6
Method: Following incubation, the various mixtures were injected intrasplenically to the chimeric mice to generate HCC foci in the liver, as shown in FIG. 4.
All cell lines grew in T25 flasks supplemented with DMEM medium, enriched with 10% fetal bovine serum. For infection experiments, cells were trypsinized and washed twice with PBS, followed by incubation with HBV-positive human sera ([…]) in the presence or absence of hIL6 (500 ng/ml) in 1-2 ml of DMEM. After 2-4 h incubation at 37° C., 4×10^6 cells/ml, 0.5 ml/mouse were injected intrasplenically to 8-10 SCID>BNX mice in each group. Animals were splenectomized following the injection.
Mice were bled at two weekly intervals for 3 months, and DNA was extracted from 100 μl sera. The DNA was subjected to PCR amplification. The DNA extraction and the PCR method applied are described in the legend of FIG. 3.

HBV [2] = test: HBV viremia in SCID>BNX chimeric mice transplanted with normal human liver fragments incubated ex-vivo with HBV-positive sera with hIL6
Method: A fragment of normal human liver from a patient with no indication of any HBV-related markers or disease, was incubated ex-vivo with a high titer HBV DNA-positive serum prior to transplantation under the kidney capsule of the chimeric animals. HBV DNA sequences were undetectable by PCR from two different genomic regions in any of these animals during the month following transplantation.
However, when liver tissue originating from the same patients was incubated ex-vivo with the above-mentioned HBV DNA-positive sera together with hIL6, HBV DNA sequences were detected from day 16 to day 31, in sera of about 50% of the transplanted animals.
Pre-exposure of liver tissue to hIL6 prior to incubation with HBV ex-vivo, increased infection to about 90% of the animals. […]
The 50 μl PCR reaction volume contained 10 pmole of each oligonucleotide primer in reaction buffer (10 mM Tris-HCl, pH 8.3, 50 mM KCl, 2.0 mM MgCl2, 0.01 % (w/v) gelatin, 250 μM of dATP, dGTP, dCTP, dTTP and 0.5 u of Taq polymerase. The reaction mixtures were overlaid with 30 μl of mineral oil. PCR cycles included 94° C. for 1 min., 55° C. for 1 min. and 72° C. for 3 min., 35 repeated cycles. 10 μl of reaction mixture was analyzed on a 2% agarose gel. Oligonucleotides used for the pre-core/core amplification were: […]

HBV [3] = test: HBV infection of human hepatocellular carcinoma cell line HuH7; type: cell-based; conditions: hIL-6 500 ng/ml
Method: HBV infection protocol of human hepatocellular carcinoma cell line HuH7: Human sera were screened for the presence of HBV DNA sequences. Positive sera were analyzed quantitatively for viral particle concentration, as described by A. Klein, J. Clin. Microb., vol. 35, pp. 1897-1899 […]. Sera containing over 108 particles per ml were selected for infection experiments. The infection experiments included the following groups: Group 1—Cells were incubated with HBV without the addition of hIL-6 in the presence of polybrene 2 mg/ml, for 90 min at 37° C., in a 5% CO2 shaking incubator, in a total volume of 1.5 to 2 ml. Group 2—Cells were incubated with 1 ml of HBV positive serum, in the presence of hIL-6 (500 ng/ml) and polybrene 2 mg/ml, for 90 min at 37° C., in a 5% CO2 incubator, in a total volume of 1.5 to 2 ml. Group 3—Cells were incubated with 1 ml of HBV positive serum, in the presence of the cytokine hyper-IL-6 (HIL-6), 1.5 mg/ml, and polybrene 2 mg/ml, for 90 min at 37° C., in a 5% CO2 shaking incubator, in a total volume of 1.5 to 2 ml. The preparation of the cytokine hyper-IL-6 (HIL-6) is described in M. Fischer, et al., Nat. Biotechnol., vol. 15, pp. 142-145 (1997); T. Rakemann et al., J. Biol. Chem., vol. 274, pp. 1257-1266 (1999); P. Schirmacher et al., Am. J. Pathol., vol. 153, pp. 639-648 (1998). […]

hIL6: human interleukin 6
time after transplantation at which HBV-DNA sequences could be detected in serum (HBV [1]): 13 days
transplanted animals with HBV DNA sequences detected in sera (HBV [2]; liver tissue incubated ex-vivo with HBV DNA-positive sera together with hIL6 (500 ng/ml), day 16 to day 31): about 50%
animals infected (HBV [2]; pre-exposure of liver tissue to hIL6 prior to incubation with HBV ex-vivo): about 90%
HBV infection of HuH7 cells (HBV [3]): enhanced
